What was measured:
Assay in all cases: KINOMEscan competition binding
Conditions in all cases: compound 10.0 µM
[1] = biological target: GSK3B (human) (UniProt P49841)
[2] = biological target: CAMKK1 (human) (UniProt Q8N5S9)
[3] = biological target: RAF1 (human) (UniProt P04049)
[4] = biological target: NTRK3 (human) (UniProt Q16288)
[5] = biological target: PDPK1 (human) (UniProt O15530)
[6] = biological target: ROCK2 (human) (UniProt O75116)
[7] = biological target: CSNK2A1 (human) (UniProt P68400)
[8] = biological target: TYRO3 (human) (UniProt Q06418)
[9] = biological target: RPS6KA6 KD1 (human) (UniProt Q9UK32)
Sequence of RPS6KA6 KD1 (human) (Q9UK32 whole entry, looked up): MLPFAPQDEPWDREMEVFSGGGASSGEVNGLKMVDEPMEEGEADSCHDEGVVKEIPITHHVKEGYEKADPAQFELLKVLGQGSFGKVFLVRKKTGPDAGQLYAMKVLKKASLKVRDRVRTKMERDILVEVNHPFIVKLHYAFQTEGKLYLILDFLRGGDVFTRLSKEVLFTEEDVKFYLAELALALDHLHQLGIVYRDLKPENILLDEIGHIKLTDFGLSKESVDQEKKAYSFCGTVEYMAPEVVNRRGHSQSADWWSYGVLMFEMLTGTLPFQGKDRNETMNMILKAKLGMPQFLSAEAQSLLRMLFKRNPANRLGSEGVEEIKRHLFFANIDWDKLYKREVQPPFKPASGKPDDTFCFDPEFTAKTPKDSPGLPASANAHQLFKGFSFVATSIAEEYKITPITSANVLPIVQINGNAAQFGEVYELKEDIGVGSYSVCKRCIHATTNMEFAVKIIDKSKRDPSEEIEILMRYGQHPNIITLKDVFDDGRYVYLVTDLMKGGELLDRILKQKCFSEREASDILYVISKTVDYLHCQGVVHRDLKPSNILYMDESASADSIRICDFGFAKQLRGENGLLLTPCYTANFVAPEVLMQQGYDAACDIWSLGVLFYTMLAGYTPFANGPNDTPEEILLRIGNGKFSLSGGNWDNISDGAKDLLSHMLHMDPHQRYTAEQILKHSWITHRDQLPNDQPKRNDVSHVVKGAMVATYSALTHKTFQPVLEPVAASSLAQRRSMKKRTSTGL

[10] = biological target: STK24 (human) (UniProt Q9Y6E0)
[11] = biological target: STK33 (human) (UniProt Q9BYT3)
[12] = biological target: LIMK1 (human) (UniProt P53667)
[13] = biological target: BRSK2 (human) (UniProt Q8IWQ3)
[14] = biological target: MAP4K4 (human) (UniProt O95819)
[15] = system: FLT3 (human), P36888 [ITD]
[16] = biological target: JAK1 JH1 catalytic (human) (UniProt P23458)
[17] = biological target: ERBB4 (human) (UniProt Q15303)
[18] = biological target: MARK3 (human) (UniProt P27448)
[19] = biological target: PRKCD (human) (UniProt Q05655)
Sequence of PRKCD (human) (Q05655 whole entry, looked up): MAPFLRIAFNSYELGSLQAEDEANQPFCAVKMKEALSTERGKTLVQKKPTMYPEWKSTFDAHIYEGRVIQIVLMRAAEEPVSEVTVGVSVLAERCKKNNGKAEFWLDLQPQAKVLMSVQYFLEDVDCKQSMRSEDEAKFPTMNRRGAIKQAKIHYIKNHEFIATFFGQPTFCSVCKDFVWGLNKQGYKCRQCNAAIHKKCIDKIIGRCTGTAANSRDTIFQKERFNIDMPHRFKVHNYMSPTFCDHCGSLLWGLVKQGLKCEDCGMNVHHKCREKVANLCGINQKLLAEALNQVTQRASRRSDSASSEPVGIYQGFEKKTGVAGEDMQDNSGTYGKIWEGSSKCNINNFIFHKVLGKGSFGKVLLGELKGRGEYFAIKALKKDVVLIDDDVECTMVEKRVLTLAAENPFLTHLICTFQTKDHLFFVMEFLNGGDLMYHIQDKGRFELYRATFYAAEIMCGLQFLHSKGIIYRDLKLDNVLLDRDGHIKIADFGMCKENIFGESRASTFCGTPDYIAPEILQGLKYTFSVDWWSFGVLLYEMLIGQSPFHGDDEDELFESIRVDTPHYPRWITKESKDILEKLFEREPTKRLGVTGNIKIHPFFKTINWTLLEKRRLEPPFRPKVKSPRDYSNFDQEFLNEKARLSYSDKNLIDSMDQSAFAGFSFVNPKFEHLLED

[20] = biological target: MARK2 (human) (UniProt Q7KZI7)
[21] = biological target: MERTK (human) (UniProt Q12866)
Sequence of MERTK (human) (Q12866 whole entry, looked up): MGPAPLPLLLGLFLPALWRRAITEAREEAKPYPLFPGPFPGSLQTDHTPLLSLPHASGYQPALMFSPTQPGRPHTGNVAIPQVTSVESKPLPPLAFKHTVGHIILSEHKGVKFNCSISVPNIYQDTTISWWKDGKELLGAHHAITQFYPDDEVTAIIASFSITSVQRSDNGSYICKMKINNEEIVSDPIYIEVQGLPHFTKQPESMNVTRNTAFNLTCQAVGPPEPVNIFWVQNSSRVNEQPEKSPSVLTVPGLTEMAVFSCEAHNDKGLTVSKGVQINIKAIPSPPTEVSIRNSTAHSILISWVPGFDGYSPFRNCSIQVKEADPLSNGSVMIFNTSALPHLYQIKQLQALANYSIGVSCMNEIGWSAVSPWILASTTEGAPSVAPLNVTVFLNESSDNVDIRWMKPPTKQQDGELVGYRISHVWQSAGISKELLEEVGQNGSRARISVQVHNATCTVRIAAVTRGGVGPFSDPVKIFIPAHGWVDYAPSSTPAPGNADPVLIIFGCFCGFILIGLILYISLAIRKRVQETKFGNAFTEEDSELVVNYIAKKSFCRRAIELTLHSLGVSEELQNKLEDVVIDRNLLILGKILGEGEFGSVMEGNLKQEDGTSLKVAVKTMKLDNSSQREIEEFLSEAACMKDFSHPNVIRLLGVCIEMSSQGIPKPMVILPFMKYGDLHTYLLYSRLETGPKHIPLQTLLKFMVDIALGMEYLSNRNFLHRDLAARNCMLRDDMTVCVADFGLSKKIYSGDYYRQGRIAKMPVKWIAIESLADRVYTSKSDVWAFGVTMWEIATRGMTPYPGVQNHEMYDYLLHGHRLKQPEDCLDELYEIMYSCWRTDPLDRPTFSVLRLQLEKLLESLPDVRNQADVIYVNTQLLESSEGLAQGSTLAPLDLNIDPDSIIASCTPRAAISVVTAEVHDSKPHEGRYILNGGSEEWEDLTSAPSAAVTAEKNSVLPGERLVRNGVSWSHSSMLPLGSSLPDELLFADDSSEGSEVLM

[22] = biological target: DCLK2 (human) (UniProt Q8N568)
[23] = biological target: CDC42BPB (human) (UniProt Q9Y5S2)
Sequence of CDC42BPB (human) (Q9Y5S2 whole entry, looked up): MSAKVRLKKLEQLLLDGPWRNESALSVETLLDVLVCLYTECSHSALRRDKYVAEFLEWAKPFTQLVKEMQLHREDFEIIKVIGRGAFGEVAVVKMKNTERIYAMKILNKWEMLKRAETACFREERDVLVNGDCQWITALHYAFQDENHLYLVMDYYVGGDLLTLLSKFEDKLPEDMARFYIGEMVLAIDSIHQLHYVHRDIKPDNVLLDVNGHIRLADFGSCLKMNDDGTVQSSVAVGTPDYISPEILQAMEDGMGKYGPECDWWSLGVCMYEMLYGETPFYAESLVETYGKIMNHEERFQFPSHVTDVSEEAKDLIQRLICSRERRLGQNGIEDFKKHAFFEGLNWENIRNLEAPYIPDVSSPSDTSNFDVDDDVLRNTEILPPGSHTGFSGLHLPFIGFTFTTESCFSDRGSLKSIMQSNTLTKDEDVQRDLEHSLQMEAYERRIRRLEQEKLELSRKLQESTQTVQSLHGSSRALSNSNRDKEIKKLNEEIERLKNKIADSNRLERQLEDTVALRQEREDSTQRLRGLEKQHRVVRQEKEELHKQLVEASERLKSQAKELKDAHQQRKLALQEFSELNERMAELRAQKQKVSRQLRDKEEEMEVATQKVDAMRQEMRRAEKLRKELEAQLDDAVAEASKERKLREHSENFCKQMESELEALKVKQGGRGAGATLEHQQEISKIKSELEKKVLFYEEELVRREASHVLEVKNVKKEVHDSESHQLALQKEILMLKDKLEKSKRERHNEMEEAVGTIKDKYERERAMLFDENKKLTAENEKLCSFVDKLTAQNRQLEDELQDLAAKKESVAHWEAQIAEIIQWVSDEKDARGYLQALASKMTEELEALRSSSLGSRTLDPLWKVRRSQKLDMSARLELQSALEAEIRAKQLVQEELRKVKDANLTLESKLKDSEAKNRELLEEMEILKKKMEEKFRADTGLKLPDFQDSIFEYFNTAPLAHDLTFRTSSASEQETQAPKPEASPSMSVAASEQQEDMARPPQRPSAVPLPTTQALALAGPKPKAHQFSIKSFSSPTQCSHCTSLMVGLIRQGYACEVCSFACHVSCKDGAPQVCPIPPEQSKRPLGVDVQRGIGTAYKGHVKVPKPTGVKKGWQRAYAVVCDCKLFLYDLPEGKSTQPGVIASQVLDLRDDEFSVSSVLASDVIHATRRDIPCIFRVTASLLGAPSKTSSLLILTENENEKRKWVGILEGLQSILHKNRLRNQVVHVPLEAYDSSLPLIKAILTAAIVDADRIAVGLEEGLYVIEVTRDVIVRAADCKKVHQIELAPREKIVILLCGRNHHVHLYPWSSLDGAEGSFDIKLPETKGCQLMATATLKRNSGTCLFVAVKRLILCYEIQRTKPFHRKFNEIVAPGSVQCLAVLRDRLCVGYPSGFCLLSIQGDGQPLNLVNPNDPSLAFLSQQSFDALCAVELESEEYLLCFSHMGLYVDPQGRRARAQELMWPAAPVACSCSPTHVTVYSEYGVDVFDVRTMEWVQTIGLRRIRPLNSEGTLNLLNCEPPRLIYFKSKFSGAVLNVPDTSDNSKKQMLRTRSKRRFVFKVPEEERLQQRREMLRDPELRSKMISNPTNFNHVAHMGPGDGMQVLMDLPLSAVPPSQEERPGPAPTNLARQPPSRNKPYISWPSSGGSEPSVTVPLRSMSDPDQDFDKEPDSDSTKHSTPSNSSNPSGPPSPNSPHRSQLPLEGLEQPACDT

[24] = biological target: CSK (human) (UniProt P41240)
[25] = biological target: MAPKAPK5 (human) (UniProt Q8IW41)
[26] = biological target: IKBKB (human) (UniProt O14920)
[27] = biological target: BMPR2 (human) (UniProt Q13873)
[28] = biological target: JAK3 JH1 catalytic (human) (UniProt P52333)
[29] = biological target: PKN2 (human) (UniProt Q16513)
[30] = biological target: PAK2 (human) (UniProt Q13177)
[31] = biological target: AKT3 (human) (UniProt Q9Y243)
[32] = biological target: FGFR3 (human) (UniProt P22607)
[33] = biological target: BLK (human) (UniProt P51451)
[34] = biological target: AURKC (human) (UniProt Q9UQB9)
[35] = biological target: RPS6KA2 KD1 (human) (UniProt Q15349)
Sequence of RPS6KA2 KD1 (human) (Q15349 whole entry, looked up): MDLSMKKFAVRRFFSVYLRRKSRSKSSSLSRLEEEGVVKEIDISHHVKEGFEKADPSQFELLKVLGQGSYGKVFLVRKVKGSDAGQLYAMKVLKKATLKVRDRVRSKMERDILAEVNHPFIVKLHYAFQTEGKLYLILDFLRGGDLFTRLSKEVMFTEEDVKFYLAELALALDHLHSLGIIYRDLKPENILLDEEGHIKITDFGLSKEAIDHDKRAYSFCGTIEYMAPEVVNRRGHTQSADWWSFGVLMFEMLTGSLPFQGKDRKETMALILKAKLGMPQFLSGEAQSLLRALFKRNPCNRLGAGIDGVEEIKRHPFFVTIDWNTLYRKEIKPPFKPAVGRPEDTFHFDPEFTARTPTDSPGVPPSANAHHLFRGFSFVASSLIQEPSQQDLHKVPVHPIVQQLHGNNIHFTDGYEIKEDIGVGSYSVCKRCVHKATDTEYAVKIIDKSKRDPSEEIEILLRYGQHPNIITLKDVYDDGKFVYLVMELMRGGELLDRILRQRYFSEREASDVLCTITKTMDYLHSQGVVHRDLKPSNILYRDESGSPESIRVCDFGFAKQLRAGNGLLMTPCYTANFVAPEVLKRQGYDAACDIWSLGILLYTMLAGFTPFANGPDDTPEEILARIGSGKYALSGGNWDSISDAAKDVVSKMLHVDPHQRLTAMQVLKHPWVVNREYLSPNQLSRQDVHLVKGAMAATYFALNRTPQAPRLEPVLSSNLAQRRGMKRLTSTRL

[36] = biological target: DCLK3 (human) (UniProt Q9C098)
[37] = biological target: PRKG2 (human) (UniProt Q13237)
[38] = biological target: CAMKK2 (human) (UniProt Q96RR4)
[39] = biological target: IGF1R (human) (UniProt P08069)
[40] = biological target: NUAK1 (human) (UniProt O60285)

Structure (SMILES)	kinase still bound, per cent of control [1] [%]	kinase still bound, per cent of control [2] [%]	kinase still bound, per cent of control [3] [%]	kinase still bound, per cent of control [4] [%]	kinase still bound, per cent of control [5] [%]	kinase still bound, per cent of control [6] [%]	kinase still bound, per cent of control [7] [%]	kinase still bound, per cent of control [8] [%]	kinase still bound, per cent of control [9] [%]	kinase still bound, per cent of control [10] [%]	kinase still bound, per cent of control [11] [%]	kinase still bound, per cent of control [12] [%]	kinase still bound, per cent of control [13] [%]	kinase still bound, per cent of control [14] [%]	kinase still bound, per cent of control [16] [%]	kinase still bound, per cent of control [17] [%]	kinase still bound, per cent of control [18] [%]	kinase still bound, per cent of control [19] [%]	kinase still bound, per cent of control [21] [%]	kinase still bound, per cent of control [22] [%]	further results
Cn1c(=O)n(-c2ccc(C(C)(C)C#N)cc2)c2c3cc(-c4cnc5ccccc5c4)ccc3ncc21	100	100	100	100	100	100	100	100	100	100	100	100	100	100	16	100	100	100	100	100	kinase still bound, per cent of control [15]: 100%; kinase still bound, per cent of control [20]: 100%; kinase still bound, per cent of control [23]: 100%; kinase still bound, per cent of control [24]: 100%; kinase still bound, per cent of control [25]: 100%; kinase still bound, per cent of control [26]: 100%; kinase still bound, per cent of control [27]: 100%; kinase still bound, per cent of control [28]: 100%; kinase still bound, per cent of control [29]: 100%; kinase still bound, per cent of control [30]: 100%; kinase still bound, per cent of control [31]: 100%; kinase still bound, per cent of control [32]: 100%; kinase still bound, per cent of control [33]: 100%; kinase still bound, per cent of control [34]: 100%; kinase still bound, per cent of control [35]: 100%; kinase still bound, per cent of control [36]: 100%; kinase still bound, per cent of control [37]: 100%; kinase still bound, per cent of control [38]: 100%; kinase still bound, per cent of control [39]: 100%; kinase still bound, per cent of control [40]: 30%
CCC(=O)N1CCN(c2ccc(-n3c(=O)ccc4cnc5ccc(-c6cnc7ccccc7c6)cc5c43)cc2C(F)(F)F)CC1	100	80	48	100	100	50	94	31	66	100	90	15	76	5.2	82	100	100	82	53	100	kinase still bound, per cent of control [15]: 29%; kinase still bound, per cent of control [23]: 3.4%; kinase still bound, per cent of control [24]: 71%; kinase still bound, per cent of control [25]: 100%; kinase still bound, per cent of control [26]: 61%; kinase still bound, per cent of control [27]: 59%; kinase still bound, per cent of control [28]: 100%; kinase still bound, per cent of control [29]: 65%; kinase still bound, per cent of control [30]: 100%; kinase still bound, per cent of control [31]: 77%; kinase still bound, per cent of control [32]: 42%; kinase still bound, per cent of control [33]: 75%; kinase still bound, per cent of control [34]: 91%; kinase still bound, per cent of control [35]: 100%; kinase still bound, per cent of control [36]: 97%; kinase still bound, per cent of control [37]: 78%; kinase still bound, per cent of control [38]: 85%; kinase still bound, per cent of control [39]: 94%; kinase still bound, per cent of control [40]: 100%
Cc1ccc2nc(NCCN)c3ncc(C)n3c2c1	68	100	100	100	100	100	33	100	88	81	73	100	100	100	100	100	100	100	100	100	kinase still bound, per cent of control [20]: 100%; kinase still bound, per cent of control [23]: 100%; kinase still bound, per cent of control [24]: 100%; kinase still bound, per cent of control [25]: 100%; kinase still bound, per cent of control [26]: 0.55%; kinase still bound, per cent of control [27]: 96%; kinase still bound, per cent of control [28]: 100%; kinase still bound, per cent of control [29]: 71%; kinase still bound, per cent of control [30]: 94%; kinase still bound, per cent of control [31]: 100%; kinase still bound, per cent of control [32]: 99%; kinase still bound, per cent of control [33]: 100%; kinase still bound, per cent of control [34]: 100%; kinase still bound, per cent of control [35]: 100%; kinase still bound, per cent of control [36]: 76%; kinase still bound, per cent of control [37]: 100%; kinase still bound, per cent of control [38]: 93%; kinase still bound, per cent of control [39]: 90%; kinase still bound, per cent of control [40]: 88%
